Laboratory results: PMC10700596 (Nature Communications, 2023)
Values joined by “and” are separate entries in the source; they are usually repeats but may differ in a detail not shown here. Equal entries are not always repeated. Where two headings read alike, the source gives them in different places.

Assays:
FGFR2 = FGFR2 (Homo sapiens, UniProt P21802); assay: biochemical; assay type: binding; details: 10000 nM; read-out: Percent Control
From the text: (§1) . […] This panel includes several adverse drug reaction receptors such as the serotonin receptor 5HT2b, M1 and M2 muscarinic receptors and adrenergic receptors. […]. page 7:
(§2) Supplementary Figure 7: Non-GPCR off-target screening for 74. a)-e) Dose-response curves of 74 at […]
(§3) proliferator-activated receptor gamma (PPARγ, Eurofins item G124). Data in a)-e) and g)-i) represent two technical replicates. Source data are provided as a Source Data file.
(§4) (1 picture or pasted object on this page, not shown here)

GSK3B = GSK3B (Homo sapiens, UniProt P49841); assay: biochemical; assay type: binding; details: 10000 nM; read-out: Percent Control
From the text: as §1, §2, §3, §4

AKT1 = AKT1 (Homo sapiens, UniProt P31749); assay: biochemical; assay type: binding; details: 10000 nM; read-out: Percent Control
From the text: as §1, §2, §3, §4

JNK1 = JNK1 (Homo sapiens, UniProt P45983); assay: biochemical; assay type: binding; details: 10000 nM; read-out: Percent Control
From the text: as §1, §2, §3, §4

CDK2 = CDK2 (Homo sapiens, UniProt P24941); assay: biochemical; assay type: binding; details: 10000 nM; read-out: Percent Control
From the text: as §1, §2, §3, §4

p38-alpha = p38-alpha (Homo sapiens, UniProt Q16539); assay: biochemical; assay type: binding; details: 10000 nM; read-out: Percent Control
From the text: as §1, §2, §3, §4

[1] = biological target: T1, TYK2(JH1domain-catalytic) (Homo sapiens, UniProt P29597); assay: KINOMEscan; assay type: binding
T1 construct: TYK2(JH1domain-catalytic); purchased Eurofins DiscoverX KINOMEscan (scanEDGE, 97 kinases)
T1 sequence (P29597 888-1187 limits assumed): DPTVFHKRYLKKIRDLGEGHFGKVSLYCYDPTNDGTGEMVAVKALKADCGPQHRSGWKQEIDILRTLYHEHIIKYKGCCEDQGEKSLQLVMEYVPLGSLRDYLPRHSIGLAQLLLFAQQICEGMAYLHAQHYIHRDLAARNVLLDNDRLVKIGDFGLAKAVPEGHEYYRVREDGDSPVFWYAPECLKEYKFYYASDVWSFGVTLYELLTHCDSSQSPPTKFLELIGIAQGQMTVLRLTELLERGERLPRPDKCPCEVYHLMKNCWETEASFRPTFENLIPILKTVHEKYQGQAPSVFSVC

ABL1-phosphorylated = ABL1-phosphorylated (Homo sapiens, UniProt P00519); assay: biochemical; assay type: binding; details: 10000 nM; read-out: Percent Control
AXL = AXL (Homo sapiens, UniProt P30530); assay: biochemical; assay type: binding; details: 10000 nM; read-out: Percent Control
TSSK1B = TSSK1B (Homo sapiens, UniProt Q9BXA7); assay: biochemical; assay type: binding; details: 10000 nM; read-out: Percent Control
in vivo = assay type: in vivo, mice; details: mice; for concentration at 5 min / concentration at 15 min / concentration at 30 min / concentration at 60 min / concentration at 120 min / concentration at 240 min / concentration at 360 min / concentration at 480 min / concentration at 1440 min: male, CD-1, mouse, ip, 10 mg/kg, IP 10 mg/kg
[2] = CSF, CSF, mean, read-out: CSF concentrations of cmpd 7827_0016 in mice following IP (10 mg/kg) administration, C
[3] = brain, brain, individual animals, read-out: Brain concentration, Final
[4] = brain, brain, mean, read-out: Brain concentrations of cmpd 7827_0016 in mice following IP (10 mg/kg) administration, C

Chain of AXL (P30530 26-894): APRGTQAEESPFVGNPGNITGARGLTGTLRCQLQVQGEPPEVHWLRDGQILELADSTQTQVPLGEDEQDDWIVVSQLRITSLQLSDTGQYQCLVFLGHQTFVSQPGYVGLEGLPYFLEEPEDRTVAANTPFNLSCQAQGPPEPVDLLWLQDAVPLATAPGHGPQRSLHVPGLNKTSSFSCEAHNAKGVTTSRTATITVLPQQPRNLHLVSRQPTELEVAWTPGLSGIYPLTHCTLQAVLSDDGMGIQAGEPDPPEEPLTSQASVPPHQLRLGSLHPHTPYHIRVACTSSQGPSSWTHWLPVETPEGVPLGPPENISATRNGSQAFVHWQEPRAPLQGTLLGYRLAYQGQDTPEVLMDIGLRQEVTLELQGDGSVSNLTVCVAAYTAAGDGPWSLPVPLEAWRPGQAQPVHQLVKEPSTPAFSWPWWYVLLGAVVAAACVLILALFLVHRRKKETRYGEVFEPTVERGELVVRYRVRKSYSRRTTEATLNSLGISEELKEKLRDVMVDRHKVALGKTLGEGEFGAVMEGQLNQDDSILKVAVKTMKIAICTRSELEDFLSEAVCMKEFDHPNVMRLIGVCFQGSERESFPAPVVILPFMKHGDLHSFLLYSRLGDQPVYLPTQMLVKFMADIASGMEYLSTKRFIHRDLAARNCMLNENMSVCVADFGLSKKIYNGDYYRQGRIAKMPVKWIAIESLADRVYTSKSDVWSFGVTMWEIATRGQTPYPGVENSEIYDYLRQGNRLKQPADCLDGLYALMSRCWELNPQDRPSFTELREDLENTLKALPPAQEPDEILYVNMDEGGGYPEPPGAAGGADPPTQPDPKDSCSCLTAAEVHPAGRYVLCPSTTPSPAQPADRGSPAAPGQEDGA
Chain of FGFR2 (P21802 22-821): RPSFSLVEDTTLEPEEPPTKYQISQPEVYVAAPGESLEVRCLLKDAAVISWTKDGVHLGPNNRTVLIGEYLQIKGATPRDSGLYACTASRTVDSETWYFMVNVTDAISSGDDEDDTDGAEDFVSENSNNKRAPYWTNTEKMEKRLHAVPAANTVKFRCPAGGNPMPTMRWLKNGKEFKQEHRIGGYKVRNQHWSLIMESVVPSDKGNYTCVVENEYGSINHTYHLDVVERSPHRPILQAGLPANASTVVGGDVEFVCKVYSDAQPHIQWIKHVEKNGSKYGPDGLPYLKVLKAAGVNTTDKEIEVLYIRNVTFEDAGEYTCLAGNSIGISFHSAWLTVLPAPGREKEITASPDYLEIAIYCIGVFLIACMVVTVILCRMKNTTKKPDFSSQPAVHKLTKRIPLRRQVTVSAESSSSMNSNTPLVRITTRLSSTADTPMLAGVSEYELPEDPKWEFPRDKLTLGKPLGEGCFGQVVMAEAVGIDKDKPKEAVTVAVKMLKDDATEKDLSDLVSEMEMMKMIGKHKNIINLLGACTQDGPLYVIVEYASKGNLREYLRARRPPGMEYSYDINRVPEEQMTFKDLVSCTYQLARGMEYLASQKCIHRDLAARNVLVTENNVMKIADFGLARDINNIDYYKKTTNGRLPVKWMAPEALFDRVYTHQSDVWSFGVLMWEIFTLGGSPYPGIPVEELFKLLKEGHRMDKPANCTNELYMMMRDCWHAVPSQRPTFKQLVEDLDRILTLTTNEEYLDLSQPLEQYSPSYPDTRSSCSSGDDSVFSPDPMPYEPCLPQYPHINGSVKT
Chain of TSSK1B (Q9BXA7 whole entry): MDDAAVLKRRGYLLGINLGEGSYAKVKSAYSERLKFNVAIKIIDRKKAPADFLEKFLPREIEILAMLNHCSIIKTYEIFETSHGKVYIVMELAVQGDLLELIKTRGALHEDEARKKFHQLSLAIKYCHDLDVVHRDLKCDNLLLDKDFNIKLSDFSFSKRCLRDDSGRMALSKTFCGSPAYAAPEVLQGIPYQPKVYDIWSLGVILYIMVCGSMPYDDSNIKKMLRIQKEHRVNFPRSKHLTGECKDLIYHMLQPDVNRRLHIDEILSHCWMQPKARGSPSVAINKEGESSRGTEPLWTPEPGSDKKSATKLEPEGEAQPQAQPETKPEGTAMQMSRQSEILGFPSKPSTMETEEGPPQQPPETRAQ
Chain of AKT1 (P31749 whole entry): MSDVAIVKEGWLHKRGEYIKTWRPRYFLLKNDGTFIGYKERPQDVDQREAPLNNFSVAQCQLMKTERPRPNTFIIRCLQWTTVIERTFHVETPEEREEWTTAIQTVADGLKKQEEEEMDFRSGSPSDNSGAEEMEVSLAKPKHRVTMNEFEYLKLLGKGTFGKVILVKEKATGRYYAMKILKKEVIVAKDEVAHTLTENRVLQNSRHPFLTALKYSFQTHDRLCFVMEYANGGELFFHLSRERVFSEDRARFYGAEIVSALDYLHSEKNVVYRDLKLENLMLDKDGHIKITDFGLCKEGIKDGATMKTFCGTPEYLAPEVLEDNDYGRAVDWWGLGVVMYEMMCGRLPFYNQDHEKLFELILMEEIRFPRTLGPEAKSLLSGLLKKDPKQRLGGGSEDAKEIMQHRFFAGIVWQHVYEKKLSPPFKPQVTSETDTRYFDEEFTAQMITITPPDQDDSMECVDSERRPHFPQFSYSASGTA
Chain of GSK3B (P49841 whole entry): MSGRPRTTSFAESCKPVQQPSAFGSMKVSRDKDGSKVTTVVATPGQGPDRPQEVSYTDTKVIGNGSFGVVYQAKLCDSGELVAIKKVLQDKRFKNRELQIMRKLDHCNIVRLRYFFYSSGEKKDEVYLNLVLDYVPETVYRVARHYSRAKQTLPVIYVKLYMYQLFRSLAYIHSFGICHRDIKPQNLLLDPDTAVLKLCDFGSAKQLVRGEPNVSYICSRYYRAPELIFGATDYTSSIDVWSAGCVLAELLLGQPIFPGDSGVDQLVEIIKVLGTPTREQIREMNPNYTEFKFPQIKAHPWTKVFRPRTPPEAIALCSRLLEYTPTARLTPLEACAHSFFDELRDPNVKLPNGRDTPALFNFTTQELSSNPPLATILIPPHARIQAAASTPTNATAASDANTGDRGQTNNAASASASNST
Chain of p38-alpha (Q16539 whole entry): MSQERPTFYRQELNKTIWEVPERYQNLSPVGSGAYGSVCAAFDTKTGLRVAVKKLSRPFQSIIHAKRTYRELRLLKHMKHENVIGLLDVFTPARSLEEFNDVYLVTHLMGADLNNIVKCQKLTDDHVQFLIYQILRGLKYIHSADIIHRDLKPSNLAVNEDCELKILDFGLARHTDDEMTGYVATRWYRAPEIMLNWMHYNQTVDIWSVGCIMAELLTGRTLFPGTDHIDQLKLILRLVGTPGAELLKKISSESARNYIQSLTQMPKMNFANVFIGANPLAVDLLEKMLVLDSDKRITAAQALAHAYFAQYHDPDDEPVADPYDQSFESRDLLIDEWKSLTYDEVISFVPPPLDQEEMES
Chain of ABL1-phosphorylated (P00519 whole entry): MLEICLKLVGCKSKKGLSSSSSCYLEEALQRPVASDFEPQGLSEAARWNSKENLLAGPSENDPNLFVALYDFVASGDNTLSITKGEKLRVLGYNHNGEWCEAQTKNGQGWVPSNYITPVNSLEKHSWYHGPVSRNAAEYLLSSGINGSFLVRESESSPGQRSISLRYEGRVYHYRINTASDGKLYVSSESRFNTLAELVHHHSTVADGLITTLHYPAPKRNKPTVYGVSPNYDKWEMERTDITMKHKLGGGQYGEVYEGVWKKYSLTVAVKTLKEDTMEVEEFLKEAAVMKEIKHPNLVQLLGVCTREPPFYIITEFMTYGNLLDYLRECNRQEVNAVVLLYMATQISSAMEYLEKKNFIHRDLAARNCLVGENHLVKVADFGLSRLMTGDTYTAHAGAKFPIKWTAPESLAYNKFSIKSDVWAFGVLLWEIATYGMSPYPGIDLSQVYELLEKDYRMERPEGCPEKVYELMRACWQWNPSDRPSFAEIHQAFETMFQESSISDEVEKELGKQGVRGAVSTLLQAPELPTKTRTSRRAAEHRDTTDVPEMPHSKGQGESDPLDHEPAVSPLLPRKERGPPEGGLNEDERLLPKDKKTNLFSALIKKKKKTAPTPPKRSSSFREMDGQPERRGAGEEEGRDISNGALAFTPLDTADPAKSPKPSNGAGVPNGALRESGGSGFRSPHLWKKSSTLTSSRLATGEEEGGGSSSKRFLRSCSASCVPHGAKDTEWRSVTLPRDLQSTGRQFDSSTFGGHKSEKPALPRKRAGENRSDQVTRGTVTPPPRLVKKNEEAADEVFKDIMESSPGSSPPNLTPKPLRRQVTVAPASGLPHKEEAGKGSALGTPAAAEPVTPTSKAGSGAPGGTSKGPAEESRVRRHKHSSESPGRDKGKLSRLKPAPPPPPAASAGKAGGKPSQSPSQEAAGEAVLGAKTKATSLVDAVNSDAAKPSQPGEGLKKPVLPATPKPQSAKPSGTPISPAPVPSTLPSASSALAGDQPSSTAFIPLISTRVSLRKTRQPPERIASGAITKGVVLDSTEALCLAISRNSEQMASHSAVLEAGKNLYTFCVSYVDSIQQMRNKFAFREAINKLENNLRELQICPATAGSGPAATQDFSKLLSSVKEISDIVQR
Chain of JNK1 (P45983 whole entry): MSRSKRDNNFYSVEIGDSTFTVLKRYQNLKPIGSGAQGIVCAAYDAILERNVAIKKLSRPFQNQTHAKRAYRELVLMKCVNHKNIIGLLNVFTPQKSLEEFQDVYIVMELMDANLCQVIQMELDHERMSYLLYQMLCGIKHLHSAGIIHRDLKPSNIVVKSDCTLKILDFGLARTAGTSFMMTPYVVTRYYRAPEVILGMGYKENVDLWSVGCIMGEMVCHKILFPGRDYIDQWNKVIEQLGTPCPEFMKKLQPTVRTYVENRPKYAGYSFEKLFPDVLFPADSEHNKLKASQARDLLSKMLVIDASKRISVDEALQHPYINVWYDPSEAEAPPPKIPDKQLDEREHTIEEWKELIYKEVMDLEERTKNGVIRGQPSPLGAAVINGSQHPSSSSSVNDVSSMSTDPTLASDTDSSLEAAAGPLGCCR

## O=C(O)C1CCC2(CC1)CC(Nc1ncnc3[nH]c4c(F)cccc4c13)C2 (stereo not shown) [Compound 74, OC(=O)C1CCC2(CC(C2)NC=3N=CN=C4NC=5C(F)=CC=CC5C34)CC1]
FGFR2
  remaining activity at 10 µM: 71%
GSK3B
  remaining activity at 10 µM: 82%
AKT1
  remaining activity at 10 µM: 100%
JNK1
  remaining activity at 10 µM: 35%
CDK2
  remaining activity at 10 µM: 96%
p38-alpha
  remaining activity at 10 µM: 87%
[1]; 10000 nM, read-out: Percent Control
  remaining binding at 10 µM: 0%
[1]; TYK2, [Compound] 0.0001 nM
  Signal (qPCR): 4e-6 and 3.91e-6
[1]; TYK2, [Compound] 0.01 nM
  Signal (qPCR): 3.79e-6 and 3.64e-6
[1]; TYK2, [Compound] 0.169 nM
  Signal (qPCR): 3.6e-6 and 3.79e-6
[1]; TYK2, [Compound] 0.508 nM
  Signal (qPCR): 4.38e-6 and 4.26e-6
[1]; TYK2, [Compound] 1.52 nM
  Signal (qPCR): 4.63e-6 and 4.29e-6
[1]; TYK2, [Compound] 13.7 nM
  Signal (qPCR): 3.86e-6 and 3.5e-6
[1]; TYK2, [Compound] 41.2 nM
  Signal (qPCR): 4.1e-6 and 3.94e-6
[1]; TYK2, [Compound] 123 nM
  Signal (qPCR): 2.97e-6 and 3.29e-6
[1]; TYK2, [Compound] 370 nM
  Signal (qPCR): 2.73e-6 and 2.71e-6
[1]; TYK2, [Compound] 3330 nM
  Signal (qPCR): 6.46e-7 and 5.93e-7
[1]; TYK2, [Compound] 10000 nM
  Signal (qPCR): 1.74e-7 and 2.08e-7
ABL1-phosphorylated
  remaining activity at 10 µM: 63%
AXL
  remaining activity at 10 µM: 47%
TSSK1B
  remaining activity at 10 µM: 52%
In vivo; 10 mg/kg i.p.
  brain and cerebral spinal fluid exposure: only marginal brain and cerebral spinal fluid exposure
In vivo; [2]
  concentration at 5 min: 15.7 ng/mL
  concentration at 15 min: 70.5 ng/mL
  concentration at 30 min: 80.6 ng/mL
  concentration at 60 min: 158 ng/mL
  concentration at 120 min: 119 ng/mL
  concentration at 240 min: 26 ng/mL
  concentration at 360 min: 80.9 ng/mL
  concentration at 480 min: 7.31 ng/mL
  concentration at 1440 min: 10.8 ng/mL
In vivo; CSF, CSF, individual animals, read-out: CSF concentration, Final
  concentration at 360 min: 98.6 ng/mL
In vivo; [3]
  concentration at 5 min: 58.9 ng/g
  concentration at 15 min: 152 ng/g
  concentration at 30 min: 150 ng/g
  concentration at 60 min: 182 ng/g
  concentration at 240 min: 21.6 ng/g
  concentration at 360 min: 20.8 ng/g
  concentration at 1440 min: 0 ng/g
In vivo; [4]
  concentration at 5 min: 61.1 ng/g
  concentration at 15 min: 135 ng/g
  concentration at 30 min: 203 ng/g
  concentration at 60 min: 160 ng/g
  concentration at 120 min: 82.1 ng/g
  concentration at 240 min: 24.7 ng/g
  concentration at 360 min: 24.3 ng/g
  concentration at 480 min: 26.7 ng/g
  concentration at 1440 min: 0 ng/g
In vivo; plasma, plasma, individual animals, read-out: Plasma concentration, Final
  concentration at 5 min: 1340 ng/mL
